# According to publication PMC12298822 (Molecules, 2025):
# How the values were obtained:
# [1] = cited from earlier work
# [2] = Stability of stock and working solutions; format: physicochemical
# Method: These stock solutions were diluted with 50% acetonitrile to prepare working standard solutions. The working solutions’ calibration curve (CC) concentrations were set at 50, 100, 500, 1000, 2500, 5000, and 10,000 ng/mL, while the quality control (QC) concentrations were 150, 3000, and 8000 ng/mL. The IS concentration was prepared at 1000 ng/mL. All working stock solutions were prepared and stored at −20 °C until use. […] Consequently, the final calibration curve range was 5–1000 ng/mL. […] All results were within the acceptable deviation limit of ±15% from the nominal concentrations. To assess the plasma stability of the analyte, low, medium, and high QC levels (n = 3) were tested under various conditions, including refrigerated storage at 4 °C for 24 h, deep-freezing at −70 °C for 7 h, three freeze–thaw cycles (between −70 °C and room temperature), and storage in the autosampler at 10 °C for 30 h. All measured concentrations under these conditions met the predefined acceptance criteria of ±15%, confirming the robustness and reliability of the analytical method.
# [3] = 100 mg dose; cited from earlier work
# [4] = Pharmacokinetic study after a single oral 100 mg sitagliptin tablet in healthy Korean male subjects (LC-MS/MS of plasma); format: in vivo, human; conditions: single oral 100 mg tablet, fasting
# Method: (§1) Human plasma samples were removed from a −70 °C deep freezer and thawed at room temperature. After vortexing and centrifugation, 100 µL of plasma was transferred into a glass tube. To this, 20 µL of the IS (1000 ng/mL) was added, followed by the addition of 2 mL of MTBE as the extraction solvent. The mixture was vortexed vigorously for 10 min and centrifuged at 1699 g for 10 min at 4 °C. The upper organic layer (2 mL) was carefully transferred to a new tube and evaporated to dryness under a nitrogen stream at 40 °C. The dried residue was reconstituted with a total volume of 1 mL of a reconstitution solvent composed of 0.01% formic acid in DW and 100% ACN (1:1, v/v), vortexed for 10 min, and centrifuged again at 1699× g. A 5 µL aliquot of the clear supernatant was injected into the LC–MS/MS system for analysis.
# This study procedures were conducted with the principles of the Helsinki Declaration (World Medical Association Declaration of Helsinki 2000) and Korean Good Clinical Practice guidelines. The study was approved by the Institutional Review Board (IRB) of Kyung Hee University Hospital (IRB No. KHUH 2023-07-039; approval date: 20 October 2023). […] Blood samples were collected using EDTA-K2 anticoagulant tubes at various time points: pre-dose (0 h), and at 0.5, 1, 1.5, 2, 2.5, 3, 4, 6, 8, 16, 24, and 48 h following administration. Once collected, the blood samples were centrifuged at 3000 rpm for 10 min to separate the plasma, which was then transferred to labeled tubes and stored at −70 °C until analysis. All clinical procedures, including dosing, sampling, and analysis, were conducted consistently across all subjects.
# Pharmacokinetic parameters such as Cmax (maximum plasma concentration), Tmax (time to reach Cmax), T1/2 (elimination half-life), and CL/F (apparent oral clearance) were determined from individual plasma concentration–time profiles. Non-compartmental analysis for extravascular administration was performed using BA Cal 2007 software (MFDS, version 1.0.0). This analysis calculated parameters including AUClast (area under the concentration–time curve from 0 to 48 h) and AUCinf (area under the curve extrapolated to infinity). The statistical analysis of the pharmacokinetic data was conducted using K-BE Test II software (version 2.0.2), which was developed and distributed by the MFDS [26].
# [5] = Stability of sitagliptin in human plasma samples under storage and handling conditions; format: in vitro ADME
# Method: as §1
# The stability of both stock and working solutions was evaluated at low and high QC levels (n = 3) under storage conditions of room temperature (25 °C) for 3 h and −20 °C for 7 h. All results were within the acceptable deviation limit of ±15% from the nominal concentrations. To assess the plasma stability of the analyte, low, medium, and high QC levels (n = 3) were tested under various conditions, including refrigerated storage at 4 °C for 24 h, deep-freezing at −70 °C for 7 h, three freeze–thaw cycles (between −70 °C and room temperature), and storage in the autosampler at 10 °C for 30 h. All measured concentrations under these conditions met the predefined acceptance criteria of ±15%, confirming the robustness and reliability of the analytical method.
# [6] = cited from earlier work; remark: listed apart in the source
smiles,measurement,setting,value
"N[C@@H](CC(=O)N1CCn2c(nnc2C(F)(F)F)C1)Cc1cc(F)c(F)cc1F [Sitagliptin, 7-[(3R)-3-amino-1-oxo-4-(2,4,5-trifluorophenyl)butyl]-5,6,7,8-tetrahydro-3-(trifluoromethyl)]",binding to plasma proteins,[1],38%
same,"Solution stability (%), mean","[2]; stock solution, room temperature (3 h), 15 ng/mL level, vs freshly prepared",100.89%
same,"Solution stability (%), mean","[2]; stock solution, room temperature (3 h), 800 ng/mL level, vs freshly prepared",99.25%
same,"Solution stability (%), mean","[2]; working solution, room temperature (7 h), 15 ng/mL level",100.19%
same,"Solution stability (%), mean","[2]; working solution, room temperature (7 h), 800 ng/mL level",95.93%
same,maximum concentration (Cmax),[3],327.98 ng/mL
same,terminal half-life (T1/2),[3],8.92 h
same,time to reach maximum concentration (Tmax),[3],2.68 h
same,half-life,"[4]; human, plasma, n = 8, mean",8.47 ± 3.08 h
same,Cmax,"[4]; human, n = 8, plasma, mean",373 ng/mL
same,Tmax,"[4]; human, n = 8, plasma, mean",2.06 h
same,AUClast,"[4]; n = 8, 0 to 48 h, mean",2863.82 ng·h/mL
same,AUCinf,"[4]; n = 8, extrapolated to infinity, mean",3010.56 ± 302.61 ng·h/mL
same,"Plasma sample stability (%), mean","[5]; human plasma, deep freeze (7 h, −70 °C), 15 ng/mL",99.61%
same,"Plasma sample stability (%), mean","[5]; human plasma, deep freeze (7 h, −70 °C), 300 ng/mL",96.77%
same,"Plasma sample stability (%), mean","[5]; human plasma, deep freeze (7 h, −70 °C), 800 ng/mL",97.96%
same,"Plasma sample stability (%), mean","[5]; human plasma, freeze–thaw (3 cycles), 15 ng/mL",103.73%
same,"Plasma sample stability (%), mean","[5]; human plasma, freeze–thaw (3 cycles), 300 ng/mL",98.57%
same,"Plasma sample stability (%), mean","[5]; human plasma, freeze–thaw (3 cycles), 800 ng/mL",97.71%
same,"Plasma sample stability (%), mean","[5]; human plasma, refrigeration (7 h, 4 °C), 15 ng/mL",100.61%
same,"Plasma sample stability (%), mean","[5]; human plasma, refrigeration (7 h, 4 °C), 300 ng/mL",100.02%
same,"Plasma sample stability (%), mean","[5]; human plasma, refrigeration (7 h, 4 °C), 800 ng/mL",96.29%
same,"Plasma sample stability (%), mean","[5]; human plasma, room temperature (7 h), 15 ng/mL",102.57%
same,"Plasma sample stability (%), mean","[5]; human plasma, room temperature (7 h), 300 ng/mL",97.43%
same,"Plasma sample stability (%), mean","[5]; human plasma, room temperature (7 h), 800 ng/mL",96.99%
same,"Plasma sample stability (%), mean","[5]; processed (LLE) plasma sample, autosampler (30 h, 10 °C), 15 ng/mL",105.20%
same,"Plasma sample stability (%), mean","[5]; processed (LLE) plasma sample, autosampler (30 h, 10 °C), 300 ng/mL",97.37%
same,"Plasma sample stability (%), mean","[5]; processed (LLE) plasma sample, autosampler (30 h, 10 °C), 800 ng/mL",96.83%
same,apparent volume of distribution,[6],approximately 198 L
same,fraction of total clearance by hepatic metabolism (CYP3A4 and CYP2C8),[6],< 16%
same,oral bioavailability,[6],approximately 87%
